Values of other authors as cited in patent publication US20050272712A1, “Compositions and methods for treatment of premenstrual dysphoric disorder” (Wyeth, priority 2004, published 2005).

Conditions: daily dose of either 20 mg or 60 mg; Steiner et al. 1995

In the case of CNCCC(Oc1ccc(C(F)(F)F)cc1)c1ccccc1 (stereo not shown) [fluoxetine], the “reduction of symptoms versus placebo” value is listed as “superior to placebo in reducing symptoms”.
